The experiment deals with Casein kinase I isoform delta (Homo sapiens) (UniProt P48730). The experiment is described as follows: CSNK1D kinase inhibitors, dose response, biochemical, Z'-LYTE, FRET, direct format (AID 1671244). The conditions noted are these: Z'-LYTE FRET kinase activity, recombinant CK1 delta.
Sequence of Casein kinase I isoform delta (Homo sapiens) (P48730 whole entry, looked up, canonical isoform): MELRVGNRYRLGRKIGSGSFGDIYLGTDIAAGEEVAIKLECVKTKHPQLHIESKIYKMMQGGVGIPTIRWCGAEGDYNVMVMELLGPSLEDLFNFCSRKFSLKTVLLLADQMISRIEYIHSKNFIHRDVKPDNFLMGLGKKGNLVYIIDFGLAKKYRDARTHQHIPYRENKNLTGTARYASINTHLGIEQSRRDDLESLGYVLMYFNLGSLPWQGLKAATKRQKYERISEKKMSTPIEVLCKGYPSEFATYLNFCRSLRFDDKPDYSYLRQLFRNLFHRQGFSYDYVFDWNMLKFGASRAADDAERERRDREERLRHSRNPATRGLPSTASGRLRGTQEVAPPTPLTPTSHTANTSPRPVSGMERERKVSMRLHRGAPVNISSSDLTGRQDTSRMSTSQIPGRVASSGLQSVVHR

For orientation: IC50 means the concentration needed to halve the response being measured. As to `Brc1c(Br)c(Br)c2n[nH]nc2c1Br`, the IC50 was 3.68 µM.

(Values after PubChem BioAssay AID1671244.)
